In PubChem BioAssay AID1963972 (Molecular Pharmacology Branch, DTP, NCI, 2024):
Values belong to the compound of their own block, whether it stands above or below them.

System: 945468-187-T-J2-PDC spheroids viability
Assay: Anticancer human tumor 945468-187-T-J2-PDC patient-derived rectal carcinoma cell line growth inhibition [PI3K]
Settings: spheroids with HUVEC and MSC; for IC50: curve of first compound; for viability, T/C: stronger effect = lower value
How it was run: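 Stroma-containing spheroids: tumor line, pooled-donor HUVEC, hMSC. Treatments: targeted agents with PI3K inhibitors. Dosing: clinically relevant, half-log spacing, 10 microM ceiling without known Cmax. Read-out: cell viability.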

[1] = second compound 0.00316 µM, first compound 0.0316 µM
[2] = second compound 0.00316 µM, first compound 0.1 µM
[3] = second compound 0.00316 µM, first compound 0.316 µM
[4] = second compound 0.00316 µM, first compound 1 µM
[5] = second compound 0.00316 µM, first compound 3.16 µM
[6] = second compound 0.00316 µM, first compound 10 µM
[7] = second compound 0.01 µM, first compound 0.0316 µM
[8] = second compound 0.01 µM, first compound 0.1 µM
[9] = second compound 0.01 µM, first compound 0.316 µM
[10] = second compound 0.01 µM, first compound 1 µM
[11] = second compound 0.01 µM, first compound 3.16 µM
[12] = second compound 0.01 µM, first compound 10 µM
[13] = second compound 0.0316 µM, first compound 0.0316 µM
[14] = second compound 0.0316 µM, first compound 0.1 µM
[15] = second compound 0.0316 µM, first compound 0.316 µM
[16] = second compound 0.0316 µM, first compound 1 µM
[17] = second compound 0.0316 µM, first compound 3.16 µM
[18] = second compound 0.0316 µM, first compound 10 µM
[19] = second compound 0.1 µM, first compound 0.0316 µM
[20] = second compound 0.1 µM, first compound 0.1 µM
[21] = second compound 0.1 µM, first compound 0.316 µM
[22] = second compound 0.1 µM, first compound 1 µM
[23] = second compound 0.1 µM, first compound 3.16 µM
[24] = second compound 0.1 µM, first compound 10 µM
[25] = second compound 0.316 µM, first compound 0.0316 µM
[26] = second compound 0.316 µM, first compound 0.1 µM
[27] = second compound 0.316 µM, first compound 0.316 µM
[28] = second compound 0.316 µM, first compound 1 µM
[29] = second compound 0.316 µM, first compound 3.16 µM
[30] = second compound 0.316 µM, first compound 10 µM
[31] = second compound 1 µM, first compound 0.0316 µM
[32] = second compound 1 µM, first compound 0.1 µM
[33] = second compound 1 µM, first compound 0.316 µM
[34] = second compound 1 µM, first compound 1 µM
[35] = second compound 1 µM, first compound 3.16 µM
[36] = second compound 1 µM, first compound 10 µM
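Note: spheroids exposed to compounds for seven days before reading.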

- IC50 (second compound 0.00316 µM): > 10 µM
- IC50 (second compound 0.01 µM): > 10 µM
- IC50 (second compound 0.0316 µM): > 10 µM
- IC50 (second compound 0.1 µM): > 10 µM
- IC50 (second compound 0.316 µM): > 10 µM
- IC50 (second compound 1 µM): > 10 µM
Structure (SMILES): C#Cc1c(F)ccc2cc(O)cc(-c3ncc4c(N5CC6CCC(C5)N6)nc(OCC56CCCN5CC(F)C6)nc4c3F)c12 (centres undefined) + CC(Nc1ccc2c(c1)OCCn1cc(N3C(=O)OCC3C(F)F)nc1-2)C(N)=O
- viability, T/C [1]: 103%
- viability, T/C [2]: 86.9%
- viability, T/C [3]: 87.3%
- viability, T/C [4]: 96.7%
- viability, T/C [5]: 94%
- viability, T/C [6]: 96.5%
- viability, T/C [7]: 75.3%
- viability, T/C [8]: 105%
- viability, T/C [9]: 81.5%
- viability, T/C [10]: 82.8%
- viability, T/C [11]: 103%
- viability, T/C [12]: 86.8%
- viability, T/C [13]: 94.5%
- viability, T/C [14]: 85.7%
- viability, T/C [15]: 79.7%
- viability, T/C [16]: 88.1%
- viability, T/C [17]: 107%
- viability, T/C [18]: 103%
- viability, T/C [19]: 82.6%
- viability, T/C [20]: 81.2%
- viability, T/C [21]: 88.7%
- viability, T/C [22]: 93.3%
- viability, T/C [23]: 108%
- viability, T/C [24]: 95.3%
- viability, T/C [25]: 77%
- viability, T/C [26]: 70.7%
- viability, T/C [27]: 76.5%
- viability, T/C [28]: 107%
- viability, T/C [29]: 81.4%
- viability, T/C [30]: 74.4%
- viability, T/C [31]: 72%
- viability, T/C [32]: 62.4%
- viability, T/C [33]: 67.1%
- viability, T/C [34]: 68.3%
- viability, T/C [35]: 75.3%
- viability, T/C [36]: 69.3%

- IC50 (second compound 0.00316 µM): > 10 µM
- IC50 (second compound 0.01 µM): > 10 µM
- IC50 (second compound 0.0316 µM): > 10 µM
- IC50 (second compound 0.1 µM): > 10 µM
- IC50 (second compound 0.316 µM): < 0.0316 µM
- IC50 (second compound 1 µM): < 0.0316 µM
Structure (SMILES): CC(C)NCC(C(=O)N1CCN(c2ncnc3c2C(C)CC3O)CC1)c1ccc(Cl)cc1 (centres undefined) + COc1c(OCCCN2CCOCC2)ccc2c3n(c(=NC(=O)c4cnc(N)nc4)nc12)CCN3
- viability, T/C [1]: 88.9%
- viability, T/C [2]: 110%
- viability, T/C [3]: 129%
- viability, T/C [4]: 106%
- viability, T/C [5]: 110%
- viability, T/C [6]: 90.3%
- viability, T/C [7]: 104%
- viability, T/C [8]: 109%
- viability, T/C [9]: 111%
- viability, T/C [10]: 87.7%
- viability, T/C [11]: 90.2%
- viability, T/C [12]: 86.6%
- viability, T/C [13]: 83.6%
- viability, T/C [14]: 125%
- viability, T/C [15]: 112%
- viability, T/C [16]: 103%
- viability, T/C [17]: 84%
- viability, T/C [18]: 101%
- viability, T/C [19]: 87.2%
- viability, T/C [20]: 106%
- viability, T/C [21]: 120%
- viability, T/C [22]: 80.5%
- viability, T/C [23]: 82.3%
- viability, T/C [24]: 86.1%
- viability, T/C [25]: 47.1%
- viability, T/C [26]: 51.6%
- viability, T/C [27]: 39.7%
- viability, T/C [28]: 44.6%
- viability, T/C [29]: 45.4%
- viability, T/C [30]: 36.8%
- viability, T/C [31]: 21%
- viability, T/C [32]: 21.3%
- viability, T/C [33]: 23.3%
- viability, T/C [34]: 20.9%
- viability, T/C [35]: 24.6%
- viability, T/C [36]: 21.6%
